Assay results: patent publication US11203577B2, “Sulfonyl-structure-containing triazinone derivatives, their preparation methods and their uses in insect killing and/or bacterium killing” (Nankai University, priority 2017, dated 2021)
Where two headings read alike, the source gives them in different places.

What was measured:
[1] = tested on: mosquito larvae (Culer pipiens pallens); experiment: Test of insecticidal activity against mosquito larvae (checked after 24 h); conditions: 24 h, read-out: Mortalities (%) against mosquito larvae
[2] = tested on: Maize borers; experiment: Test of insecticidal activity against maize borers (leaf immersion); conditions: read-out: Mortalities (%) Maize borers
[3] = tested on: Armyworms; experiment: Test of insecticidal activity against armyworms (leaf immersion); conditions: 600 mg/kg, 3-4 days
[4] = tested on: Cucumber fusarium wilt; experiment: In vitro fungicidal activity, PDA colony diameter; format: cell-based; conditions: 96 h, 50 mg/kg, inhibition of colony diameter, read-out: Fungicidal activity (%) Cucumber fusarium wilt
[5] = tested on: Watermelon anthracnose; experiment: In vitro fungicidal activity, PDA colony diameter; format: cell-based; conditions: 50 mg/kg, inhibition of colony diameter; read-out: Fungicidal activity (%) Watermelon anthracnose
[6] = tested on: Potato late blight; experiment: microbe, parasite or virus in culture; format: cell-based; conditions: Phytophthora infestans, 96 h, read-out: Fungicidal activity (%) Potato late blight
[7] = tested on: Corn southern leaf blight; experiment: In vitro fungicidal activity, PDA colony diameter; format: cell-based; conditions: 50 mg/kg, inhibition of colony diameter; read-out: Fungicidal activity (%) Corn southern leaf blight
[8] = tested on: Rice sheath blight; experiment: In vitro fungicidal activity, PDA colony diameter; format: cell-based; conditions: 50 mg/kg, inhibition of colony diameter; read-out: Fungicidal activity (%) Rice sheath blight
[9] = tested on: bean aphides (Aphis laburni Kaltenbach); experiment: Test of insecticidal activity against aphides (leaf immersion, checked after 96 h); conditions: for insecticidal activity against aphides compared with pymetrozine: 5 mg/kg; for mortality at 5 mg/kg / mortality at 10 mg/kg / mortality at 100 mg/kg / mortality at 600 mg/kg / mortality at 2.5 mg/kg: Aphis, 96 h, read-out: Mortalities (%) against aphides
[10] = tested on: Wheat head blight; experiment: whole plant or invertebrate; format: cell-based; conditions: Triticum aestivum, read-out: Fungicidal activity (%) Wheat head blight
[11] = tested on: Wheat sheath blight; experiment: In vitro fungicidal activity, PDA colony diameter; format: cell-based; conditions: 50 mg/kg, inhibition of colony diameter; read-out: Fungicidal activity (%) Wheat sheath blight
[12] = tested on: Sclerotinia rot of colza; experiment: In vitro fungicidal activity, PDA colony diameter; format: cell-based; conditions: 96 h, 50 mg/kg, inhibition of colony diameter, read-out: Fungicidal activity (%) Sclerotinia rot of colza
[13] = tested on: Tomato early blight; experiment: In vitro fungicidal activity, PDA colony diameter; format: cell-based, Alternaria solani; conditions: 50 mg/kg, inhibition of colony diameter; read-out: Fungicidal activity (%) Tomato early blight
[14] = tested on: Cercospora brown spot of peanut; experiment: In vitro fungicidal activity, PDA colony diameter; format: cell-based; conditions: 96 h, 50 mg/kg, inhibition of colony diameter, read-out: Fungicidal activity (%) Cercospora brown spot of peanut
[15] = tested on: Capsicum phytophthora blight; experiment: In vitro fungicidal activity, PDA colony diameter; format: cell-based; conditions: 96 h
Description: (§1) Here, the test is described in an example of Alternaria solani; it can be replaced by other fungi.
(§2) In vitro testing method: Alternaria solani is inoculated to a PDA culture medium and cultured for 7 days, a fungus dish with a diameter of […] is prepared on the periphery of the colony with a punch and inoculated to a PDA culture medium that contains pesticide at a concentration of 50 mg/kg and a PDA culture medium that doesn't contain the pesticide, and are cultured for 4 days respectively; then, the colony diameters are measured, and the inhibition percentages of the pesticides are calculated by comparing with the control sample.

[16] = tested on: Apple ring rot; experiment: In vitro fungicidal activity, PDA colony diameter; format: cell-based; conditions: inhibition of colony diameter
Description: as §1, §2

[17] = tested on: Rice bakanae disease; experiment: In vitro fungicidal activity, PDA colony diameter; format: cell-based; conditions: read-out: Fungicidal activity (%) Rice bakanae disease
[18] = tested on: Cotton bollworms; experiment: Test of insecticidal activity against cotton bollworms (pesticide mixed into feedstuff); conditions: read-out: Mortalities (%) Cotton bollworms
Description: Method of testing against cotton bollworms: the pesticide is mixed into the feedstuff, i.e., 3 mL prepared solution is added into about 27 g freshly prepared feedstuff; thus, required concentration is obtained by diluting by 10 times.

[19] = 50 mg/kg, inhibition of colony diameter

Row | SMILES | mortality at 2 mg/kg [1] [%] | mortality at 5 mg/kg [1] [%] | mortality at 10 mg/kg [1] [%] | mortality at 600 mg/kg [2] [%] | Mortalities (%) Armyworms [3] [%] | inhibition of growth at 50 mg/kg [4] [%] | inhibition at 50 mg/kg [5] [%] | inhibition of growth at 50 mg/kg [6] [%] | inhibition at 50 mg/kg [7] [%] | inhibition at 50 mg/kg [8] [%] | mortality at 5 mg/kg [9] [%] | mortality at 10 mg/kg [9] [%] | mortality at 100 mg/kg [9] [%] | mortality at 600 mg/kg [9] [%] | inhibition at 50 mg/kg [10] [%] | inhibition at 50 mg/kg [11] [%] | inhibition of growth at 50 mg/kg [12] [%] | inhibition at 50 mg/kg [13] [%] | inhibition of growth at 50 mg/kg [14] [%] | inhibition of growth at 50 mg/kg [15] [%] | also measured
1 | CC1=NNC(=O)N(NS(=O)(=O)c2ccccc2)C1 [Ia-9, N-(6-methyl-3-oxo-2,3-dihydro-1,2,4-triazin-4(5H)-yl)-benzenesulfonamide] | 10 | 80 | 100 | 25 | 35 | 0 | 12.5 | 22.2 | 12.5 | 50.8 | 30 | 100 | 100 | 100 | 0 | 40.9 | 40 | 9.5 | 15.8 | 26.5 | insecticidal activity against aphides compared with pymetrozine [9]: equivalent to the insecticidal activity of pymetrozine; inhibition at 50 mg/kg [16]: 24.1%; inhibition at 50 mg/kg [17]: 22.2%; mortality at 600 mg/kg [18]: 30%
2 | CC1=NNC(=O)N(NS(=O)(=O)c2ccccc2C)C1 [Ia-10, 2-methyl-N-(6-methyl-3-oxo-2,3-dihydro-1,2,4-triazin-4(5H)-yl)-benzenesulfonamide] | 40 | 100 | 100 | 40 | 40 | 5.9 | 39.2 | 18.7 | 37.5 | 17.4 | 90 | 100 | 100 | 100 | 13.5 | 14.3 | 21 | 9 | 4 | 9.4 | mortality at 2.5 mg/kg [9]: 25%; inhibition at 50 mg/kg [16]: 10.8%; inhibition at 50 mg/kg [17, 19]: 13.8%; mortality at 600 mg/kg [18]: 50%
3 | CC1=NNC(=O)N(NS(=O)(=O)c2cccc(C)c2)C1 [Ia-11, 3-methyl-N-(6-methyl-3-oxo-2,3-dihydro-1,2,4-triazin-4(5H)-yl)-benzenesulfonamide] | 20 | 100 | 100 | 15 | 20 | 8.8 | 36.1 | 9.3 | 18.7 | 16.3 | 80 | 100 | 100 | 100 | 2.7 | 14.3 | 26.3 | 1.5 | 8 | 27.8 | mortality at 2.5 mg/kg [9]: 15%; inhibition at 50 mg/kg [16]: 6.8%; inhibition at 50 mg/kg [17, 19]: 10.3%; mortality at 600 mg/kg [18]: 20%
4 | CC1=NNC(=O)N(NS(=O)(=O)c2c(C)cc(C)cc2C)C1 [Ia-13, 2,4,6-trimethyl-N-(6-methyl-3-oxo-2,3-dihydro-1,2,4-triazin-4(5H)-yl)-benzenesulfonamide] | 20 | 100 | 100 | 45 | 65 | 0 | 24.6 | 25 | 28.1 | 11.6 | 60 | 100 | 100 | 100 | 16.2 | 4.3 | 21 | 9 | 12 | 22.2 | mortality at 2.5 mg/kg [9]: 10%; inhibition at 50 mg/kg [16]: 10.8%; inhibition at 50 mg/kg [17, 19]: 13.8%; mortality at 600 mg/kg [18]: 30%
5 | COc1ccc(S(=O)(=O)NN2CC(C)=NNC2=O)cc1 [Ia-14, 4-methoxy-N-(6-methyl-3-oxo-2,3-dihydro-1,2,4-triazin-4(5H)-yl)-benzenesulfonamide] | 10 | 95 | 100 | 0 | 0 | 8.8 | 26.2 | 3.1 | 9.3 | 11.6 | 100 | 100 | 100 | 100 | 16.2 | 21.7 | 15.8 | 13.4 | 12 | 13.9 | mortality at 2.5 mg/kg [9]: 35%; inhibition at 50 mg/kg [16]: 33.8%; inhibition at 50 mg/kg [17, 19]: 10.3%; mortality at 600 mg/kg [18]: 0%
6 | CC1=NNC(=O)N(NS(=O)(=O)c2ccc(C(C)(C)C)cc2)C1 [Ia-15, 4-tert-butyl-N-(6-methyl-3-oxo-2,3-dihydro-1,2,4-triazin-4(5H)-yl)-benzenesulfonamide] | 40 | 100 | 100 | 45 | 60 | 8.8 | 14.7 | 9.7 | 9.3 | 17.4 | 85 | 100 | 100 | 100 | 13.5 | 9.3 | 15.8 | 20.9 | 12 | 5.6 | mortality at 2.5 mg/kg [9]: 10%; inhibition at 50 mg/kg [16]: 16.2%; inhibition at 50 mg/kg [17, 19]: 24.1%; mortality at 600 mg/kg [18]: 40%
7 | CC1=NNC(=O)N(NS(=O)(=O)c2ccccc2F)C1 [Ia-16, 2-fluoro-N-(6-methyl-3-oxo-2,3-dihydro-1,2,4-triazin-4(5H)-yl)-benzenesulfonamide] | 30 | 100 | 100 | 15 | 10 | 2.9 | 8.2 | 3.1 | 0 | 11.6 | 30 | 90 | 100 | 100 | 10.8 | 14.3 | 15.8 | 13.4 | 8 | 13.9 | insecticidal activity against aphides compared with pymetrozine [9]: equivalent to the insecticidal activity of pymetrozine; inhibition at 50 mg/kg [16]: 17.6%; inhibition at 50 mg/kg [17, 19]: 27.6%; mortality at 600 mg/kg [18]: 10%
